Measured values taken from ChEMBL document CHEMBL1833956, “Potent and novel 11β-HSD1 inhibitors identified from shape and docking based virtual screening” (Bioorg Med Chem Lett, 2011).

How the values were obtained:
CYP3A4 = CYP3A4 (Homo sapiens, UniProt P08684); test: Inhibition of CYP3A4 in human liver microsomes using NADPH at 10 uM by LC-MS/MS analysis relative to control; format: ADME, Microsome
Cytochrome P450 2D6 = Cytochrome P450 2D6 (Homo sapiens, UniProt P10635); test: Inhibition of CYP2D6 at 10 uM; format: ADME
[1] = Protein binding in plasma; format: ADME, cell-free; conditions: read-out: PPB
[2] = biological target: T1, 11-beta-hydroxysteroid dehydrogenase 1 (Homo sapiens, UniProt P28845); test: Inhibition of human 11beta HSD1 expressed in HEK293 cells assessed as assessed as inhibition of [1,2-(n)3H]cortisone to [3H]-cortisol after 60 mins by scintillation proximity assay; format: cell-based
Target sequence in this assay (P28845 whole entry): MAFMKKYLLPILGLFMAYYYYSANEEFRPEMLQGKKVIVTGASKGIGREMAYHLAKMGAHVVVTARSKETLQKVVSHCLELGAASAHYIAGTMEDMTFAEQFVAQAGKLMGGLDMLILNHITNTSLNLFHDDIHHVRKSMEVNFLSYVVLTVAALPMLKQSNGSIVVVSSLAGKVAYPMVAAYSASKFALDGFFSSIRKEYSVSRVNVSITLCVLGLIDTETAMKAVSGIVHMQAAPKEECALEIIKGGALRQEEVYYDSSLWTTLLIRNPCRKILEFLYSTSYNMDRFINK

[3] = biological target: T2, 11-beta-hydroxysteroid dehydrogenase type 2 (Homo sapiens, UniProt P80365); test: Inhibition of human 11beta HSD2
T2 sequence (P80365 whole entry): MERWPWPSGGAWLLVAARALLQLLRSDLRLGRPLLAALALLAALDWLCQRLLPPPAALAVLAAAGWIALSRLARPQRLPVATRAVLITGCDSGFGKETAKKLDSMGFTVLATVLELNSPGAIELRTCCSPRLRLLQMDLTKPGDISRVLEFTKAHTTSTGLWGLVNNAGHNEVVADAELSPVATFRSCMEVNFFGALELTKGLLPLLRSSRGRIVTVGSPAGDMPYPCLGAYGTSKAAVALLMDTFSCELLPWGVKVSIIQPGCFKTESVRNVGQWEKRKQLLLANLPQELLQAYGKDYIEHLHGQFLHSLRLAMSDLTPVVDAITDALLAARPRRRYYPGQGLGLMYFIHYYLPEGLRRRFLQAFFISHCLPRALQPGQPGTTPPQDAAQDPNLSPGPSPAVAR

Homo sapiens = species on record: Homo sapiens; test: Selectivity ratio of IC50 for human 11beta HSD2 to IC50 for human 11beta HSD1
[4] = biological target: T1, 11-beta-hydroxysteroid dehydrogenase 1; test: Inhibition of human 11beta HSD1 expressed in HEK293 cells assessed as assessed as inhibition of [1,2-(n)3H]cortisone to [3H]-cortisol at 100 uM after 60 mins by scintillation proximity assay
Target sequence in this assay (P28845 whole entry, looked up): as the sequence (P28845 whole entry) above

Sequence of Cytochrome P450 2D6 (P10635 whole entry): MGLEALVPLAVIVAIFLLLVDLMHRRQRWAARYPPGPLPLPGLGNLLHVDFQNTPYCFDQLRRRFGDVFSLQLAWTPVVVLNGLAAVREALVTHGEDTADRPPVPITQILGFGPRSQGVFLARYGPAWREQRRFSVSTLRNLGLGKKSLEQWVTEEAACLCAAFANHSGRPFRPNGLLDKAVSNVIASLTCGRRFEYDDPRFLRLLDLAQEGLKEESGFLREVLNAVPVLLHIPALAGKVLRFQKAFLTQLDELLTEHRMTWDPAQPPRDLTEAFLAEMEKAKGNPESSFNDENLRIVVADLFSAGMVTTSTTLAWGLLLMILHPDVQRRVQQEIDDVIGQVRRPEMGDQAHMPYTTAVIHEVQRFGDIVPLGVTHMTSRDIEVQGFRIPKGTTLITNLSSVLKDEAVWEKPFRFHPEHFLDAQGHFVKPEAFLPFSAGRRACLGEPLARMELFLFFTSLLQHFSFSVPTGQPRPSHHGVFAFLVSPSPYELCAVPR
Sequence of CYP3A4 (P08684 whole entry): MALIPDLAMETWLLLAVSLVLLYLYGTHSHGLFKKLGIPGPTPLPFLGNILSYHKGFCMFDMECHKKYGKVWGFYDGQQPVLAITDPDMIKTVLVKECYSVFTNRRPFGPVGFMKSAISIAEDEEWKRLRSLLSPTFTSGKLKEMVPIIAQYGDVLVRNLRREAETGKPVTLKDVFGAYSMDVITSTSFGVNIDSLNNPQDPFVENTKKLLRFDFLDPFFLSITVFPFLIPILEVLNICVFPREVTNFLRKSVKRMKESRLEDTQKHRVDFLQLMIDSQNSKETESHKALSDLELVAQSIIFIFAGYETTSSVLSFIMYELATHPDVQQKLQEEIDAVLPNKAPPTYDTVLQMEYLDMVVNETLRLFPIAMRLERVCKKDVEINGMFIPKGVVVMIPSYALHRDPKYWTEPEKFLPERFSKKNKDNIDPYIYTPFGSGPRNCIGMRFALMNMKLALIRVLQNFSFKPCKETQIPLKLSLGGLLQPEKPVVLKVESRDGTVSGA

| SMILES | inhibition at 10 µM (CYP3A4) [%] | inhibition (INH) (Cytochrome P450 2D6) | fraction unbound [1] | IC50 [2] [nM] | IC50 [3] [nM] | Ratio IC50 (Homo sapiens) | inhibition [4] [%] |
| --- | --- | --- | --- | --- | --- | --- | --- |
| Fc1cccc(Cl)c1CSc1nnc(-c2ccco2)n1-c1ccc(OCc2ccccc2)cc1 | 73 | Not Active | ≤ 0.05 |  |  |  |  |
| O=C(CSc1nnc(-c2ccccc2)c(-c2ccccc2)n1)N1CCc2ccccc21 | 36 | Active | ≤ 0.05 | 58.1 | 8900 | 200 |  |
| CCN(CC)C(=O)Cc1csc(NS(=O)(=O)c2cccc(Cl)c2C)n1 |  |  |  | 28.4 |  |  |  |
| N#C/C(=C\c1ccc2c(c1)CCO2)S(=O)(=O)c1ccc(Cl)cc1Cl | 26 | Not Active | ≤ 0.05 |  |  |  |  |
| CN(Cc1ccccc1)S(=O)(=O)c1ccc(Oc2cccc(Cl)c2C#N)cc1 | 17 | Not Active | ≤ 0.05 | 41.3 |  | 2420 | < 50 |

Results, then the compound that gave them:

| inhibition at 10 µM (CYP3A4) [%] | inhibition (INH) (Cytochrome P450 2D6) | fraction unbound [1] | IC50 [2] [nM] | IC50 [3] [nM] | Ratio IC50 (Homo sapiens) | inhibition [4] [%] | SMILES |
| --- | --- | --- | --- | --- | --- | --- | --- |
| 14 | Not Active | ≤ 0.05 |  |  |  |  | O=S(=O)(c1ccc2ccccc2c1)N1CC=C(c2ccccc2)CC1 |
| 13 | Not Active | ≤ 0.1 |  |  |  |  | O=S(=O)(c1ccc2ccccc2c1)N1CCN(c2ncc(C(F)(F)F)cc2Cl)CC1 |
| 82 | Active | ≤ 0.1 | 102 |  |  |  | O=S(=O)(Nc1cccc(CCc2ccccn2)c1)c1cc(Cl)ccc1Cl |
| 26 | Not Active | ≤ 0.1 |  |  |  |  | O=S(=O)(c1ccc2ccccc2c1)N1CCCN(Cc2c(F)cccc2Cl)CC1 |
